Experimental data: patent US20240025893A1, “PYRIMIDINE-AND NITROGEN-CONTAINING BICYCLIC COMPOUND” (Asahi Kasei Pharma Corporation, priority 2020, published 2024)

Columns and labels:
human IRAK-4 = human IRAK-4 (Homo sapiens (Human), UniProt Q9NWZ3); experiment: Measurement of human IRAK-4 inhibitory activity (TR-FRET, peptide substrate phosphorylation, 10 μM ATP); type: biochemical; conditions: 1 nM IRAK-4, 10 μM ATP, 23° C., 30 minutes; average values
Method in brief: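 With 1 nM IRAK-4, 0.5 μM biotinylated peptide and 10 μM ATP, compound incubated 30 min at 23 °C in 50 mM HEPES pH 7.2 with Mg2+/Mn2+. Stopped with EDTA plus europium-cryptate anti-phosphopeptide antibody and streptavidin-XL665, 60 min at 23 °C. Activity taken as the 665/620 nm TR-FRET ratio.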

[1] = tested on: LPS-stimulated TNFα production in THP-1 cells; experiment: LPS-stimulated TNFα production inhibition test using human acute monocytic leukemia cell strain THP-1; type: cell-based; conditions: Homo sapiens, THP-1, 4 h, LPS 2.5 ng/mL, average values
Method in brief: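 Readout was HTRF-measured TNFα in supernatants, calibrated against a standard curve, after LPS challenge (2.5 ng/mL final, 4 h) of THP-1 cells pretreated 1 h at 37 °C with compound. Unstimulated wells defined 100% suppression and vehicle wells 0%. IC50 was fitted with a 4-parameter logistic model.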

Chain of human IRAK-4 (Q9NWZ3 whole entry): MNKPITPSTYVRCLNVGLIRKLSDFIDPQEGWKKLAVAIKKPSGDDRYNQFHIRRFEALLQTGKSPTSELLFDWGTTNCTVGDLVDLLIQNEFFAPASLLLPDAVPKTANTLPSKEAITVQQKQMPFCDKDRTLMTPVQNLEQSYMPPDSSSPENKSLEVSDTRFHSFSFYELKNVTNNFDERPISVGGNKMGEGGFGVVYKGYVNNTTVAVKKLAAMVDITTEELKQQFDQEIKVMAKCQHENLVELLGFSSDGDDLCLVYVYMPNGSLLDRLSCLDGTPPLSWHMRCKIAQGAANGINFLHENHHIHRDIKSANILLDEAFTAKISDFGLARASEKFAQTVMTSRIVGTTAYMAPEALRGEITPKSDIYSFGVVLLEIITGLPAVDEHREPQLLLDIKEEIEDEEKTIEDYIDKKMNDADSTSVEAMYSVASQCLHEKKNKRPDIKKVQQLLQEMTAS

Row | IC50 (human IRAK-4) | IC50 [1] | SMILES
1 | 0.0026 µM | 0.187 µM | O=C(Nc1nc2ccc(-c3cnc(CO[C@H]4CCC[C@@H]4O)nc3)cc2s1)C1CC(N2CCCCO2)C1 (stereo partly drawn) [b-02-77]
2 | 0.00229 µM | 0.111 µM | O=C(Nc1nc2ccc(-c3cnc(CO[C@H]4CCC[C@@H]4O)nc3)cc2s1)C1CC(NC2(C(F)(F)F)COC2)C1 (stereo partly drawn) [b-02-78]
3 | 0.00339 µM | 0.138 µM | O=C(Nc1nc2ccc(-c3cnc(CO[C@H]4CCC[C@@H]4O)nc3)cc2s1)C1CC(NC2(C(F)(F)F)CCC2)C1 (stereo partly drawn) [b-02-79]
4 | 0.00686 µM | 0.176 µM | O=C(Nc1nc2ccc(-c3cnc(CO[C@H]4CCC[C@@H]4O)nc3)cc2s1)C1CC(NC2(C(F)(F)F)CCCC2)C1 (stereo partly drawn) [b-02-80]
5 | 0.00364 µM | 0.202 µM | O=C(Nc1nc2ccc(-c3cnc(CO[C@H]4CCC[C@@H]4O)nc3)cc2s1)C1CC(N2CCOC3(CCCC3)C2)C1 (stereo partly drawn) [b-02-81]
6 | 0.00402 µM | 0.131 µM | CC1COC2(CCCC2)CN1C1CC(C(=O)Nc2nc3ccc(-c4cnc(CO[C@H]5CCC[C@@H]5O)nc4)cc3s2)C1 (stereo partly drawn) [b-02-82]
7 | 0.00193 µM | 0.149 µM | O=C(Nc1nc2ccc(-c3cnc(CO[C@H]4CCC[C@@H]4O)nc3)cc2s1)C1CC(N2CCCCC2)C1 (stereo partly drawn) [b-02-83]
8 | 0.00104 µM | 0.101 µM | C[C@@H]1CCCCN1C1CC(C(=O)Nc2nc3ccc(-c4cnc(CO[C@H]5CCC[C@@H]5O)nc4)cc3s2)C1 (stereo partly drawn) [b-02-84]
9 | 0.00188 µM | 0.127 µM | CC(C)[C@@H]1[C@H](O)CCCN1C1CC(C(=O)Nc2nc3ccc(-c4cnc(CO[C@H]5CCC[C@@H]5O)nc4)cc3s2)C1 (stereo partly drawn) [b-02-85]
10 | 0.000803 µM | 0.132 µM | O=C(Nc1nc2ccc(-c3cnc(CO[C@H]4CCC[C@@H]4O)nc3)cc2s1)C1CC(NCc2nccs2)C1 (stereo partly drawn) [b-02-86]
11 | 0.00095 µM | 0.182 µM | O=C(Nc1nc2ccc(-c3cnc(CO[C@H]4CCC[C@@H]4O)nc3)cc2s1)C1CC(NCc2ccsn2)C1 (stereo partly drawn) [b-02-87]
12 | 0.0013 µM | 0.071 µM | CN(C1CC(C(=O)Nc2nc3ccc(-c4cnc(CO[C@H]5CCC[C@@H]5O)nc4)cc3s2)C1)C12CC(C1)C2 (stereo partly drawn) [b-03-01, 3-(Bicyclo[1,1,1]pentan-1-yl(methyl)amino)-N-(6-(2-((((1S,2S)-2-hydroxycyclopentyl)oxy)methyl)pyrimidin-5-yl)benzo[d]thiazol-2-yl)cyclobutane-1-carboxamide]
13 | 0.011 µM | 0.145 µM | O=C(Nc1nc2ccc(-c3cnc(CO[C@H]4CCC[C@@H]4O)nc3)cc2s1)C1CC(N(CCC(F)(F)F)C23CC(C2)C3)C1 (stereo partly drawn) [b-03-02]
14 | 0.00143 µM | 0.126 µM | CN(C1CC1)C1CC(C(=O)Nc2nc3ccc(-c4cnc(CO[C@H]5CCC[C@@H]5O)nc4)cc3s2)C1 (stereo partly drawn) [b-03-03]
15 | 0.00167 µM | 0.117 µM | CN(C1CC(C(=O)Nc2nc3ccc(-c4cnc(CO[C@H]5CCC[C@@H]5O)nc4)cc3s2)C1)C12CC(C)(C1)C2 (stereo partly drawn) [b-03-04]
16 | 0.00293 µM | 0.108 µM | CN(C1CC(C(=O)Nc2nc3ccc(-c4cnc(CO[C@H]5CCC[C@@H]5O)nc4)cc3s2)C1)C1(C(F)F)CC1 (stereo partly drawn) [b-03-05]
17 | 0.0028 µM | 0.116 µM | CN(C1CC(C(=O)Nc2nc3ccc(-c4cnc(CO[C@H]5CCC[C@@H]5O)nc4)cc3s2)C1)C12CC(C#N)(C1)C2 (stereo partly drawn) [b-03-06]
18 | 0.00526 µM | 0.183 µM | CN(C1CC(C(=O)Nc2nc3ccc(-c4cnc(CO[C@H]5CCC[C@@H]5O)nc4)cc3s2)C1)[C@@H]1C[C@H]1C(F)(F)F (stereo partly drawn) [b-03-07]
19 | 0.00268 µM | 0.127 µM | CN(C1CC(C(=O)Nc2nc3ccc(-c4cnc(CO[C@H]5CCC[C@@H]5O)nc4)cc3s2)C1)C1CC(F)(F)C1 (stereo partly drawn) [b-03-08]
20 | 0.00221 µM | 0.143 µM | CN(c1cnn(C)c1)C1CC(C(=O)Nc2nc3ccc(-c4cnc(CO[C@H]5CCC[C@@H]5O)nc4)cc3s2)C1 (stereo partly drawn) [b-03-09]
21 | 0.00549 µM | 0.051 µM | C[C@H]1CN(C(=O)OC(C)(C)C)CCN1[C@H]1C[C@@H](C(=O)Nc2nc3ccc(-c4cnc(CO[C@H]5CCC[C@@H]5O)nc4)cc3s2)C1 [b-04-01, tert-Butyl (S)-4-((1S,3R)-3-((6-(2-((((1S,2S)-2-hydroxycyclopentyl)oxy)methyl)pyrimidin-5-yl)benzo[d]thiazol-2-yl)carbamoyl)cyclobutyl)-3-methylpiperazine-1-carboxylate]
22 | 0.0014 µM | 0.021 µM | Cc1cc(C(=O)N2CCN([C@H]3C[C@@H](C(=O)Nc4nc5ccc(-c6cnc(CO[C@H]7CCC[C@@H]7O)nc6)cc5s4)C3)[C@@H](C)C2)ccn1 [b-04-02, (1R,3s)-N-(6-(2-((((1S,2S)-2-Hydroxycyclopentyl)oxy)methyl)pyrimidin-5-yl)benzo[d]thiazol-2-yl)-3-((S)-2-methyl-4-(2-methylisonicotinoyl)piperazin-1-yl)cyclobutane-1-carboxamide]
23 | 0.00321 µM | 0.046 µM | C[C@H]1CN(C(=O)C23CC(C#N)(C2)C3)CCN1[C@H]1C[C@@H](C(=O)Nc2nc3ccc(-c4cnc(CO[C@H]5CCC[C@@H]5O)nc4)cc3s2)C1 [b-04-03]

Row | IC50 (human IRAK-4) | IC50 [1] | SMILES
24 | 0.00269 µM | 0.049 µM | C[C@H]1CN(C(=O)CC2CCOCC2)CCN1[C@H]1C[C@@H](C(=O)Nc2nc3ccc(-c4cnc(CO[C@H]5CCC[C@@H]5O)nc4)cc3s2)C1 [b-04-04]
25 | 0.00285 µM | 0.054 µM | C[C@H]1CN(C(=O)C2CCCO2)CCN1[C@H]1C[C@@H](C(=O)Nc2nc3ccc(-c4cnc(CO[C@H]5CCC[C@@H]5O)nc4)cc3s2)C1 (stereo partly drawn) [b-04-05]
26 | 0.00237 µM | 0.064 µM | COCCOCC(=O)N1CCN([C@H]2C[C@@H](C(=O)Nc3nc4ccc(-c5cnc(CO[C@H]6CCC[C@@H]6O)nc5)cc4s3)C2)[C@@H](C)C1 [b-04-06]
27 | 0.0026 µM | 0.06 µM | C[C@H]1CN(C(=O)C2CCOC2)CCN1[C@H]1C[C@@H](C(=O)Nc2nc3ccc(-c4cnc(CO[C@H]5CCC[C@@H]5O)nc4)cc3s2)C1 (stereo partly drawn) [b-04-07]
28 | 0.00248 µM | 0.053 µM | CCOCC(=O)N1CCN([C@H]2C[C@@H](C(=O)Nc3nc4ccc(-c5cnc(CO[C@H]6CCC[C@@H]6O)nc5)cc4s3)C2)[C@@H](C)C1 [b-04-08]
29 | 0.00258 µM | 0.055 µM | C[C@H]1CN(C(=O)C2CCOCC2)CCN1[C@H]1C[C@@H](C(=O)Nc2nc3ccc(-c4cnc(CO[C@H]5CCC[C@@H]5O)nc4)cc3s2)C1 [b-04-09]
30 | 0.00394 µM | 0.03 µM | C[C@H]1CN(C(=O)C23CC(C2)C3)CCN1[C@H]1C[C@@H](C(=O)Nc2nc3ccc(-c4cnc(CO[C@H]5CCC[C@@H]5O)nc4)cc3s2)C1 [b-04-10]
31 | 0.00189 µM | 0.038 µM | C[C@H]1CN(C(=O)c2ccccn2)CCN1[C@H]1C[C@@H](C(=O)Nc2nc3ccc(-c4cnc(CO[C@H]5CCC[C@@H]5O)nc4)cc3s2)C1 [b-04-11]
32 | 0.00193 µM | 0.039 µM | C[C@H]1CN(C(=O)c2cccnc2)CCN1[C@H]1C[C@@H](C(=O)Nc2nc3ccc(-c4cnc(CO[C@H]5CCC[C@@H]5O)nc4)cc3s2)C1 [b-04-12]
33 | 0.0017 µM | 0.027 µM | C[C@H]1CN(C(=O)c2ccncc2)CCN1[C@H]1C[C@@H](C(=O)Nc2nc3ccc(-c4cnc(CO[C@H]5CCC[C@@H]5O)nc4)cc3s2)C1 [b-04-13]
34 | 0.0015 µM | 0.025 µM | C[C@H]1CN(C(=O)c2ccc(C(F)(F)F)cn2)CCN1[C@H]1C[C@@H](C(=O)Nc2nc3ccc(-c4cnc(CO[C@H]5CCC[C@@H]5O)nc4)cc3s2)C1 [b-04-14]
35 | 0.00161 µM | 0.028 µM | CC(C)[C@H]1CN(C(=O)c2ccccn2)CCN1C1CC(C(=O)Nc2nc3ccc(-c4cnc(CO[C@H]5CCC[C@@H]5O)nc4)cc3s2)C1 (stereo partly drawn) [b-04-15]
36 | 0.00151 µM | 0.023 µM | CC[C@H]1CN(C(=O)c2ccccn2)CCN1C1CC(C(=O)Nc2nc3ccc(-c4cnc(CO[C@H]5CCC[C@@H]5O)nc4)cc3s2)C1 (stereo partly drawn) [b-04-16]
37 | 0.00158 µM | 0.022 µM | CC(C)[C@H]1CN(C(=O)C2CCOC2)CCN1C1CC(C(=O)Nc2nc3ccc(-c4cnc(CO[C@H]5CCC[C@@H]5O)nc4)cc3s2)C1 (stereo partly drawn) [b-04-17]
38 | 0.00111 µM | 0.03 µM | CC[C@H]1CN(C(=O)C2CCOC2)CCN1C1CC(C(=O)Nc2nc3ccc(-c4cnc(CO[C@H]5CCC[C@@H]5O)nc4)cc3s2)C1 (stereo partly drawn) [b-04-18]
39 | 0.00138 µM | 0.039 µM | C[C@H]1CN(C(=O)c2cccc(C(F)(F)F)n2)CCN1[C@H]1C[C@@H](C(=O)Nc2nc3ccc(-c4cnc(CO[C@H]5CCC[C@@H]5O)nc4)cc3s2)C1 [b-04-19]
40 | 0.00112 µM | 0.039 µM | COc1cccc(C(=O)N2CCN([C@H]3C[C@@H](C(=O)Nc4nc5ccc(-c6cnc(CO[C@H]7CCC[C@@H]7O)nc6)cc5s4)C3)[C@@H](C)C2)n1 [b-04-20]
41 | 0.00115 µM | 0.033 µM | Cc1cccc(C(=O)N2CCN([C@H]3C[C@@H](C(=O)Nc4nc5ccc(-c6cnc(CO[C@H]7CCC[C@@H]7O)nc6)cc5s4)C3)[C@@H](C)C2)n1 [b-04-21]
42 | 0.0013 µM | 0.05 µM | C[C@H]1CN(C(=O)[C@@H]2CCOC2)CCN1[C@H]1C[C@@H](C(=O)Nc2nc3ccc(-c4cnc(CO[C@H]5CCC[C@@H]5O)nc4)cc3s2)C1 [b-04-22]
43 | 0.00141 µM | 0.054 µM | C[C@H]1CN(C(=O)[C@H]2CCOC2)CCN1[C@H]1C[C@@H](C(=O)Nc2nc3ccc(-c4cnc(CO[C@H]5CCC[C@@H]5O)nc4)cc3s2)C1 [b-04-23]
44 | 0.00076 µM | 0.095 µM | CCCOCc1ncc(-c2ccc3nc(NC(=O)[C@H]4C[C@@H](N5CCN(C(=O)c6ccccn6)C[C@@H]5C)C4)sc3c2)cn1 [b-04-24]
45 | 0.00088 µM | 0.071 µM | CCCOCc1ncc(-c2ccc3nc(NC(=O)[C@H]4C[C@@H](N5CCN(C(=O)C6CCOC6)C[C@@H]5C)C4)sc3c2)cn1 (stereo partly drawn) [b-04-25]
